From patent US20100234226A1, “HERBICIDE COMBINATION COMPRISING DIMETHOXYTRIAZINYL-SUBSTITUTED DIFLUOROMETHANESULFONYLANILIDES” (BAYER CROPSCIENCE AG, priority 2008, published 2010)
Read-outs that look alike come from different tables or passages of the source.

What was measured:
Type in all cases: in vivo
[1] = tested on: Avena fatua (AVEFA); test: Post-emergence action against weeds, greenhouse pot test, Avena fatua; conditions: read-out: % activity found; for inhibition at 100 g/ha: 100 g of ai/ha
Procedure: (§1) Seeds or rhizome pieces of mono- and dicotyledonous harmful and useful plants were placed in peat pots (diameter 4 cm) filled with sandy loam and then covered with soil. The pots were kept in a greenhouse under optimum conditions. In addition, harmful plants encountered in paddy rice cultivation were cultivated in pots with a water level 2 cm above the soil surface.
(§2) About three weeks after the start of the cultivation, the test plants were treated at the 2- to 3-leaf stage. The herbicides, formulated as powder or liquid concentrates, were, either alone or in the combinations according to the invention, sprayed in various dosages on to the green parts of the plants using an application rate of 600 l of water/ha (converted). For further cultivation of the plants, the pots were then again kept under optimum conditions in a greenhouse.
(§3) The visual scoring of the herbicidal effects was carried out in intervals up to 21 days after the treatment. Scoring was carried out in percent in comparison to the untreated control plants. 0%=no herbicidal activity, 100%=complete herbicidal activity=complete kill.
(§4) The percentages from the treatments with the herbicides alone (=individual application) and with the combinations according to the invention (=mixtures) were employed to calculate interactions using the method of Colby. When the observed efficacies of the mixtures exceed the formal sum of the values of the tests with individual applications, they also exceed the expected value according to Colby, which is calculated using the formula below (cf. S. R. Colby; in Weeds 15 (1967) pp. 20 to 22):
(§5) Here: • A, B=activity of components A and B in percent at a dosage of a and b g of ai/ha (=gramm of active substance per hectare), respectively. • E=expected value in % at a dosage of a+b g of ai/ha. […]
(§6) Of particular interest are the results shown in the tables (Tab.) below, where the following key is used: • (1) EPPO code (former Bayer code) for the treated plant (see above) • (2) Time of scoring: DAT (days after treatment) • (3) Component A tested (identifying number) • (4) Component B tested (identifying number) • (5) Dosage component A [g of ai/ha] • (6) Dosage component B [g of ai/ha] • (7) % activity found • (8) E value (calculated according to Colby; see above) • (9) Comments: “SYNERGY”=synergistic interaction (E value <% activity found); “SAFENING”=safener action on useful plant (E value >% activity found)

[2] = tested on: Cyperus esculentus (CYPES); test: Post-emergence action against weeds, greenhouse pot test, Cyperus esculentus; conditions: Cyperus esculentus, post-emergence, read-out: % activity found; for inhibition at 12 g/ha: 12 g of ai/ha
Procedure: as §1, §2, §3, §4
(§7) Here: • A, B=activity of components A and B in percent at a dosage of a and b g of ai/ha (=gramm of active substance per hectare), respectively. • E=expected value in % at a dosage of a+b g of ai/ha.

[3] = tested on: Amaranthus retroflexus (AMARE); test: Post-emergence action against weeds, greenhouse pot test, Amaranthus retroflexus; conditions: read-out: % activity found; for inhibition at 12 g/ha: 12 g of ai/ha; for inhibition at 36 g/ha: 36 g of ai/ha
Procedure: as §1, §2, §3, §4, §7
(§8) The combinations according to the invention of herbicides from group (A) with herbicides from group (B) were tested on a broad spectrum of important harmful plants (weed grasses, broad-leaved weeds/Cyperaceae) and useful plants: Triticum aestivum (TRZAS), Stellaria media (STEME), Lolium multiflorum (LOLMU), Veronica persica (VERPE), Alopecurus myosuroides (ALOMY), Matricaria inodora (MATIN), Brassica napus (BRSNW), Viola tricolor (VIOTR), Avena fatua (AVEFA), Amaranthus retroflexus (AMARE), Zea mays (ZEAMX), Pharbitis purpurea (PHBPU), Setaria viridis (SETVI), Fallopia (ex Polygonum) convolvulus (POLCO), Echinochloa crus-gaffi (ECHCG), Abuthilon theophrasti (ABUTH), Cyperus esculentus (CYPES), Oryza sativa (ORYSA).
as §6

[4] = tested on: Triticum aestivum (TRZAS); test: Post-emergence action against weeds, greenhouse pot test, Triticum aestivum; conditions: 504 h, 21 DAT, read-out: % activity found
Procedure: as §1, §2, §3, §4, §5

[5] = tested on: Fallopia (ex Polygonum) convolvulus (POLCO); test: Post-emergence action against weeds, greenhouse pot test, Fallopia convolvulus; conditions: Fallopia convolvulus, post-emergence, 504 h, 21 DAT, read-out: % activity found
Procedure: as §1, §2, §3, §4, §7, §8, §6

[6] = tested on: Matricaria inodora (MATIN); test: Post-emergence action against weeds, greenhouse pot test, Matricaria inodora; conditions: Tripleurospermum inodorum, post-emergence, read-out: % activity found; for inhibition at 36 g/ha: 36 g of ai/ha
Procedure: as §1, §2, §3, §4, §7

[7] = tested on: Lolium multiflorum (LOLMU); test: Post-emergence action against weeds, greenhouse pot test, Lolium multiflorum; conditions: 12 g of ai/ha, read-out: % activity found
Procedure: as §1, §2, §3, §4, §7, §8, §6

[8] = tested on: Veronica persica (VERPE); test: Post-emergence action against weeds, greenhouse pot test, Veronica persica; conditions: read-out: % activity found; for inhibition at 12 g/ha: 12 g of ai/ha; for inhibition at 36 g/ha: 36 g of ai/ha
Procedure: as §1, §2, §3, §4, §7, §8, §6

[9] = tested on: Oryza sativa (ORYSA); test: Post-emergence action against weeds, greenhouse pot test, Oryza sativa; conditions: 240 h, 10 DAT, read-out: % activity found
Procedure: as §1
as §2, with “greenhouse. […]” for “greenhouse.”
as §4, with “22): […]” for “22):”

[10] = tested on: Pharbitis purpurea (PHBPU); test: Post-emergence action against weeds, greenhouse pot test, Pharbitis purpurea; conditions: Ipomoea purpurea, read-out: % activity found; for inhibition at 12 g/ha: 12 g of ai/ha
Procedure: as §1, §2, §3, §4, §7, §8, §6

[11] = tested on: Viola tricolor (VIOTR); test: Post-emergence action against weeds, greenhouse pot test, Viola tricolor; conditions: Viola tricolor, post-emergence, read-out: % activity found; for inhibition at 12 g/ha: 12 g of ai/ha
Procedure: as §1, §2, §3, §4, §7, §8, §6

[12] = tested on: Zea mays (ZEAMX); test: Post-emergence action against weeds, greenhouse pot test, Zea mays; conditions: Zea mays, post-emergence, read-out: % activity found; for inhibition at 12 g/ha: 12 g of ai/ha; for inhibition at 36 g/ha: 36 g of ai/ha
Procedure: as §1, §2, §3, §4, §7, §8, §6

[13] = tested on: Setaria viridis (SETVI); test: Post-emergence action against weeds, greenhouse pot test, Setaria viridis; conditions: 504 h, 21 DAT, read-out: % activity found
Procedure: as §1, §2, §3, §4, §5

[14] = tested on: Alopecurus myosuroides (ALOMY); test: Post-emergence action against weeds, greenhouse pot test, Alopecurus myosuroides; conditions: 504 h, 21 DAT, 100 g of ai/ha, read-out: % activity found
Procedure: as §1
as §2, with “greenhouse. […]” for “greenhouse.”
as §4, with “22): […]” for “22):”

SMILES: Cc1ccccc1CO[C@@H]1C[C@@]2(C(C)C)CC[C@]1(C)O2 (racemic) [B-24, exo-(±)-1-methyl-4-(1-methylethyl)-2-[(2-methylphenyl)methoxy]-7-oxabicyclo[2.2.1]heptane]
- inhibition at 12 g/ha ([1]; 504 h, 21 DAT, 12 g of ai/ha): 0%
- inhibition at 12 g/ha ([2]; 240 h, 10 DAT): 0%
- inhibition at 12 g/ha ([2]; 504 h, 21 DAT): 0%
- inhibition at 36 g/ha ([2]; 504 h, 21 DAT, 36 g of ai/ha): 20%
- inhibition at 12 g/ha ([3]; 240 h, 10 DAT): 0%
- inhibition at 36 g/ha ([3]; 240 h, 10 DAT): 0%
- inhibition at 12 g/ha ([3]; 504 h, 21 DAT): 0%
- inhibition at 36 g/ha ([3]; 504 h, 21 DAT): 0%
- inhibition at 12 g/ha ([4]; 12 g of ai/ha): 0%
- inhibition at 36 g/ha ([4]; 36 g of ai/ha): 10%
- inhibition at 12 g/ha ([5]; 12 g of ai/ha): 0%
- inhibition at 36 g/ha ([5]; 36 g of ai/ha): 0%
- inhibition at 36 g/ha ([6]; 240 h, 10 DAT): 0%
- inhibition at 12 g/ha ([6]; 504 h, 21 DAT, 12 g of ai/ha): 0%
- inhibition at 36 g/ha ([6]; 504 h, 21 DAT): 0%
- inhibition at 12 g/ha ([7]; 240 h, 10 DAT): 40%
- inhibition at 12 g/ha ([7]; 504 h, 21 DAT): 20%
- inhibition at 12 g/ha ([8]; 240 h, 10 DAT): 0%
- inhibition at 36 g/ha ([8]; 240 h, 10 DAT): 0%
- inhibition at 12 g/ha ([8]; 504 h, 21 DAT): 0%
- inhibition at 36 g/ha ([8]; 504 h, 21 DAT): 0%
- inhibition at 12 g/ha ([9]; 12 g of ai/ha): 0%
- inhibition at 36 g/ha ([9]; 36 g of ai/ha): 20%
- inhibition at 12 g/ha ([10]; 240 h, 10 DAT): 0%
- inhibition at 12 g/ha ([10]; 504 h, 21 DAT): 0%
- inhibition at 36 g/ha ([10]; 504 h, 21 DAT, 36 g of ai/ha): 0%
- inhibition at 12 g/ha ([11]; 240 h, 10 DAT): 0%
- inhibition at 36 g/ha ([11]; 240 h, 10 DAT, 36 g of ai/ha): 0%
- inhibition at 12 g/ha ([11]; 504 h, 21 DAT): 0%
- inhibition at 12 g/ha ([12]; 240 h, 10 DAT): 0%
- inhibition at 36 g/ha ([12]; 240 h, 10 DAT): 20%
- inhibition at 12 g/ha ([12]; 504 h, 21 DAT): 0%
- inhibition at 36 g/ha ([12]; 504 h, 21 DAT): 0%
- inhibition at 12 g/ha ([13]; 12 g of ai/ha): 30%
- inhibition at 36 g/ha ([13]; 36 g of ai/ha): 50%

SMILES: CC1(C)CON(Cc2ccccc2Cl)C1=O [B-26, 2-[(2-chlorophenyl)methyl]-4,4-dimethyl-3-isoxazolidinone]
- inhibition at 100 g/ha ([1]; 240 h, 10 DAT): 10%
- inhibition at 100 g/ha ([1]; 504 h, 21 DAT): 10%
- inhibition at 300 g/ha ([1]; 504 h, 21 DAT, 300 g of ai/ha): 30%
- inhibition at 100 g/ha ([2]; 504 h, 21 DAT, 100 g of ai/ha): 0%
- inhibition at 300 g/ha ([2]; 504 h, 21 DAT, 300 g of ai/ha): 0%
- inhibition at 100 g/ha [14]: 0%
- inhibition at 100 g/ha ([6]; 10/21 DAT, 100 g of ai/ha): 40%
- inhibition at 100 g/ha ([10]; 504 h, 21 DAT, 100 g of ai/ha): 0%
- inhibition at 300 g/ha ([10]; 504 h, 21 DAT, 300 g of ai/ha): 0%
- inhibition at 300 g/ha ([11]; 240 h, 10 DAT, 300 g of ai/ha): 50%
- inhibition at 100 g/ha ([12]; 504 h, 21 DAT, 100 g of ai/ha): 0%
- inhibition at 300 g/ha ([12]; 504 h, 21 DAT, 300 g of ai/ha): 30%
